In ChEMBL document CHEMBL5523740, “Discovery of Potent and Selective c-Met Degraders for Hepatocellular Carcinoma Treatment” (J Med Chem, 2024):
The source made the active and inactive calls. The rule behind the calls is not given here.

Legend:
[1] = biological target: T1, Hepatocyte growth factor receptor (Homo sapiens, UniProt P08581); experiment: Induction of c-Met degradation in human MHCC97H cells incubated for 24 hrs by Western blotting analysis; type: cell-based
[2] = biological target: T1, Hepatocyte growth factor receptor; experiment: Induction of c-Met degradation in human MHCC97H cells at 500 nM by Western blotting analysis; type: cell-based; details: time 3-48 hrs, TDE = time-dependent effect
[3] = biological target: T1, Hepatocyte growth factor receptor; experiment: Induction of c-Met degradation in human MHCC97H cells at 500 nM after 3 to 24 hrs by Western blotting analysis; type: cell-based; details: time 3-24 hrs
[4] = biological target: T1, Hepatocyte growth factor receptor; experiment: Induction of c-Met degradation in human MHCC97H cells at 500 nM after 24 hrs in presence of MG-132 by Western blotting analysis; type: cell-based
[5] = biological target: T1, Hepatocyte growth factor receptor; experiment: Induction of c-Met degradation in human HepG2 cells incubated for 24 hrs by Western blotting analysis; type: cell-based; details: dose 63-100 nM
[6] = biological target: T1, Hepatocyte growth factor receptor; experiment: Induction of c-Met degradation in human Huh-7 cells incubated for 24 hrs by Western blotting analysis; type: cell-based; details: dose 63-100 nM
MHCC97H [7] = experiment: Induction of cell cycle arrest in human MHCC97H cells assessed as accumulation of cells at G1 phase at 10 nM incubated for 24 hrs by PI staining based flow cytometry analysis (reference value: 70.4%); type: functional
MHCC97H [8] = experiment: Induction of cell cycle arrest in human MHCC97H cells assessed as accumulation of cells at G2 phase at 10 nM incubated for 24 hrs by PI staining based flow cytometry analysis (reference value: 19.1%); type: functional
MHCC97H [9] = experiment: Induction of apoptosis in human MHCC97H cells assessed as early apoptotic cells at 3 nM incubated for 24 hrs by Annexin-V-FITC/PI staining based flow cytometry analysis (reference value: 7.70%); type: functional
MHCC97H [10] = experiment: Induction of apoptosis in human MHCC97H cells assessed as late apoptotic cells at 3 nM incubated for 24 hrs by Annexin-V-FITC/PI staining based flow cytometry analysis (reference value: 4.24%); type: functional
MHCC97H [11] = experiment: Induction of apoptosis in human MHCC97H cells assessed as necrotic cells at 3 nM incubated for 24 hrs by Annexin-V-FITC/PI staining based flow cytometry analysis (reference value: 1.77%); type: functional
MHCC97H [12] = experiment: Induction of apoptosis in human MHCC97H cells assessed as early apoptotic cells at 10 nM incubated for 24 hrs by Annexin-V-FITC/PI staining based flow cytometry analysis (reference value: 7.70%); type: functional
MHCC97H [13] = experiment: Induction of apoptosis in human MHCC97H cells assessed as early apoptotic cells at 100 nM incubated for 24 hrs by Annexin-V-FITC/PI staining based flow cytometry analysis (reference value: 7.70%); type: functional
MHCC97H [14] = experiment: Induction of apoptosis in human MHCC97H cells assessed as necrotic cells incubated for 24 hrs by Annexin-V-FITC/PI staining based flow cytometry analysis; type: functional, cell-based; details: dose 3-100 nM
MHCC97H [15] = experiment: Antitumor activity against human MHCC97H cells xenografted in BALB/c mouse assessed as tumor growth inhibition at 10 mg/kg, ip qd for 22 days and measured every 2 days; type: functional; details: 528 h, time 22 day, read-out: TGI
MHCC97H [16] = experiment: Antitumor activity against human MHCC97H cells xenografted in BALB/c mouse assessed as tumor growth inhibition at 20 mg/kg, po qd for 22 days and measured every 2 days; type: functional; details: 528 h, time 22 day, read-out: TGI
MHCC97H [17] = experiment: Antitumor activity against human MHCC97H cells xenografted in BALB/c mouse assessed as reduction in tumor positive cells at 10 mg/kg, ip qd for 22 days and measured every 2 days by Ki67 staining based analysis; type: functional, organism-based; details: time 22.0 day
[18] = Toxicity in BALB/c mouse xenografted with human MHCC97H cells assessed as reduction in body weight at 10 mg/kg, ip qd for 22 days and measured every 2 days; type: organism-based; details: in vivo, 528 h, time 22 day
[19] = Toxicity in BALB/c mouse xenografted with human MHCC97H cells assessed as spleen lesions at 10 mg/kg, ip qd for 22 days and measured every 2 days by H and E staining based assay; type: organism-based; details: in vivo, 528 h, time 22 day
[20] = Toxicity in BALB/c mouse xenografted with human MHCC97H cells assessed as lung lesions at 20 mg/kg, po qd for 22 days and measured every 2 days by H and E staining based assay; type: organism-based; details: in vivo, 528 h, time 22 day
[21] = Toxicity in BALB/c mouse xenografted with human MHCC97H cells assessed as heart lesions at 20 mg/kg, po qd for 22 days and measured every 2 days by H and E staining based assay; type: organism-based; details: in vivo, 528 h, time 22 day
Mus musculus [22] = experiment: Downregulation of phosphorylated c-Met level in BALB/c mouse tumor xenografted with human MHCC97H cells at 10 mg/kg, ip qd for 22 days and measured every 2 days by Western blotting analysis; type: functional, organism-based; details: time 22.0 day
Mus musculus [23] = experiment: Downregulation of phosphorylated STAT3 level in BALB/c mouse tumor xenografted with human MHCC97H cells at 10 mg/kg, ip qd for 22 days and measured every 2 days by Western blotting analysis; type: functional, organism-based; details: time 22.0 day
Mus musculus [24] = experiment: Downregulation of phosphorylated STAT3 level in BALB/c mouse tumor xenografted with human MHCC97H cells at 20 mg/kg, po qd for 22 days and measured every 2 days by Western blotting analysis; type: functional, organism-based; details: time 22.0 day
Mus musculus [25] = experiment: Downregulation of c-Met protein level in BALB/c mouse tumor xenografted with human MHCC97H cells at 20 mg/kg, po qd for 22 days and measured every 2 days by Western blotting analysis; type: functional, organism-based; details: time 22.0 day
Mus musculus [26] = experiment: Downregulation of c-Met protein level in BALB/c mouse tumor xenografted with human MHCC97H cells at 10 mg/kg, ip qd for 22 days and measured every 2 days by Western blotting analysis; type: functional, organism-based; details: time 22.0 day
[27] = Half-life in Sprague-Dawley rat at 1 mg/kg, iv by LC-MS/MS method; type: ADME, organism-based; details: in vivo
[28] = AUC(0 to infinity) in Sprague-Dawley rat at 10 mg/kg, po by LC-MS/MS method; type: ADME, organism-based; details: in vivo
[29] = Mean residence time (0 to infinity) in Sprague-Dawley rat at 10 mg/kg, po by LC-MS/MS method; type: ADME, organism-based; details: in vivo
BaF3 = experiment: Antiproliferative activity against mouse BaF3 cells harboring TPR-MET fusion protein incubated for 72 hrs by CellTiter-Glo reagent based assay; type: functional, cell-based; details: BaF3, 72 h

T1 sequence (P08581 whole entry): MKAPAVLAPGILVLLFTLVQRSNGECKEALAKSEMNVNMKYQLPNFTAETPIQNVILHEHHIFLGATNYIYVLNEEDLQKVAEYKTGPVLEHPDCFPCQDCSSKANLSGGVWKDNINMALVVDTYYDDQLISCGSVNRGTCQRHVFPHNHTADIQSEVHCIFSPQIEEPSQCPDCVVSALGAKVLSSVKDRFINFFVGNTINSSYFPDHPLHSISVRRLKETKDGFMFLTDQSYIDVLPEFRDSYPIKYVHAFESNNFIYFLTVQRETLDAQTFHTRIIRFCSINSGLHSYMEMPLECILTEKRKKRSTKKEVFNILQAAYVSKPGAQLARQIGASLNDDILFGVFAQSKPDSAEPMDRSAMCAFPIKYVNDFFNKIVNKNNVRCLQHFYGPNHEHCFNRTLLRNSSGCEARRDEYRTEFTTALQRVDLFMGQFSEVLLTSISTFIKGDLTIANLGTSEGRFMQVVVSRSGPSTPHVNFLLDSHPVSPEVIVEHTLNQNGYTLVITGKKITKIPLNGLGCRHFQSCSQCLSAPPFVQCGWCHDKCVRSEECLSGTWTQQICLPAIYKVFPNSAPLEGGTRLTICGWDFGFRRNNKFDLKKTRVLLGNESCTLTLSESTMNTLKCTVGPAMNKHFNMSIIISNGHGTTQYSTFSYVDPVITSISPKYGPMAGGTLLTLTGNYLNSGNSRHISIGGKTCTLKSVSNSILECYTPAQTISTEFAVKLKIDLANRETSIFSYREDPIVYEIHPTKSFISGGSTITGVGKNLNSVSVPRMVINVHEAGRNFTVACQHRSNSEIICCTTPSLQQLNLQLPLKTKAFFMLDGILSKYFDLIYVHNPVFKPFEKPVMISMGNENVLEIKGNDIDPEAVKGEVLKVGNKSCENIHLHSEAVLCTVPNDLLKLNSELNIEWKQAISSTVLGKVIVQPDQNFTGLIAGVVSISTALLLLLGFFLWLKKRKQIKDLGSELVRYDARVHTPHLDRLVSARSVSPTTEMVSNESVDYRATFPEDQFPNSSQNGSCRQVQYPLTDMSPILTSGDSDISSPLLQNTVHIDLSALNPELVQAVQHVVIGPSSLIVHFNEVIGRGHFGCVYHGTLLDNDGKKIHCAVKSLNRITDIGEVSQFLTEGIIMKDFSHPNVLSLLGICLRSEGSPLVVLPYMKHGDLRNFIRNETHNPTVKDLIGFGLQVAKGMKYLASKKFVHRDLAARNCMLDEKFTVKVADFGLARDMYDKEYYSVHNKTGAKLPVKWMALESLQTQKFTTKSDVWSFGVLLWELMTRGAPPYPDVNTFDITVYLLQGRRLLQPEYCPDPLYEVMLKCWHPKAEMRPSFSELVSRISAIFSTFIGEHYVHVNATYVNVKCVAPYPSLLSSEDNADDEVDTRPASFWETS

- DC50 [1]: 226 nM
- Activity ([1]; dose 63-100 nM): Dose-Dependent Effect
- Activity [2]: Tde
- Activity [3]: Active
- Activity [4]: inactive
- Activity [5]: Dose-Dependent Effect
- Activity [6]: Dose-Dependent Effect
- half-life [27]: 2.5 h
- AUC(0-inf) [28]: 74.5 ng·h/mL
- MRT inf [29]: 3.73 h
- IC50 (BaF3): 6.2 nM
SMILES: N#Cc1cccc(-c2ccc(=O)n(Cc3cccc(-c4ncc(OCC5CCN(CCCCCC(=O)NCC67CC8CC(CC(C8)C6)C7)CC5)cn4)c3)n2)c1
- Activity (MHCC97H [7]): 77.6%
- Activity (MHCC97H [8]): 14.3%
- Activity (MHCC97H [9]): 16%
- Activity (MHCC97H [10]): 3.76%
- Activity (MHCC97H [11]): 0.74%
- Activity (MHCC97H [12]): 19.7%
- Activity (MHCC97H [13]): 39.9%
- Activity (MHCC97H [14]): Dose-Dependent Effect
- inhibition in vivo at 10 mg/kg (MHCC97H [15]): 61.5%
- inhibition in vivo at 20 mg/kg (MHCC97H [16]): 52.5%
- Activity (MHCC97H [17]): Active
- Activity [18]: Non-Toxic
- Activity [19]: Non-Toxic
- Activity [20]: Non-Toxic
- Activity [21]: Non-Toxic
- Activity (Mus musculus [22]): Active
- Activity (Mus musculus [23]): Active
- Activity (Mus musculus [24]): Active
- Activity (Mus musculus [25]): Active
- Activity (Mus musculus [26]): Active
